System: MV-4-11 cells
Test: Gene expression microarray analysis (Affymetrix PrimeView) and GSEA
Assay type: cell-based, human
Parameters: RFU PODN (11730768_x_at) / Fold change /veh PODN (11730768_x_at) / RFU LINC00158 (11744669_a_at) / Fold change /veh LINC00158 (11744669_a_at) / RFU DUSP10 (11751237_a_at) / Fold change /veh DUSP10 (11751237_a_at) / RFU ID3 (11757404_x_at) / Fold change /veh ID3 (11757404_x_at) / RFU PLEKHG5 (11737974_s_at) / Fold change /veh PLEKHG5 (11737974_s_at) / RFU LRRC4B (11730491_at) / Fold change /veh LRRC4B (11730491_at) / RFU GIMAP4 (11747438_a_at) / Fold change /veh GIMAP4 (11747438_a_at) / RFU KRT8 (11758183_x_at) / Fold change /veh KRT8 (11758183_x_at) / RFU CNN1 (11734310_a_at) / Fold change /veh CNN1 (11734310_a_at) / RFU VPS37D (11726825_at) / Fold change /veh VPS37D (11726825_at) / RFU C10orf10 (11716522_x_at) / Fold change /veh C10orf10 (11716522_x_at) / RFU KIR2DL2 /// KIR2DL4 /// KIR2DL5A /// KIR2DL5B /// KIR2DS1 /// KIR2DS2 /// KIR2DS3 /// KIR2DS4 /// KIR3DL3 /// KIR3DL3 /// KIR3DS1 (11738374_at) / Fold change /veh KIR2DL2 /// KIR2DL4 /// KIR2DL5A /// KIR2DL5B /// KIR2DS1 /// KIR2DS2 /// KIR2DS3 /// KIR2DS4 /// KIR3DL3 /// KIR3DL3 /// KIR3DS1 (11738374_at) / RFU C1QL1 (11718748_at) / Fold change /veh C1QL1 (11718748_at) / RFU TMPRSS4 (11747572_a_at) / Fold change /veh TMPRSS4 (11747572_a_at) / RFU HAMP (11756126_x_at) / Fold change /veh HAMP (11756126_x_at) / RFU RNFT2 (11725882_a_at) / Fold change /veh RNFT2 (11725882_a_at) / RFU NR4A2 (11747474_a_at) / Fold change /veh NR4A2 (11747474_a_at) / RFU ABCC12 (11746883_a_at) / Fold change /veh ABCC12 (11746883_a_at) / RFU TMEM136 (11760407_x_at) / Fold change /veh TMEM136 (11760407_x_at) / RFU CLDN22 /// WWC2 (11732394_at) / Fold change /veh CLDN22 /// WWC2 (11732394_at) / RFU HLA-DPB1 (11760878_x_at) / Fold change /veh HLA-DPB1 (11760878_x_at) / RFU SPINT1 (11716480_a_at) / Fold change /veh SPINT1 (11716480_a_at) / RFU GAP43 (11754022_s_at) / Fold change /veh GAP43 (11754022_s_at) / RFU A4GNT (11735810_at) / Fold change /veh A4GNT (11735810_at) / RFU PRB3 (11715151_x_at) / Fold change /veh PRB3 (11715151_x_at) / RFU TUBB4B (11761932_at) / Fold change /veh TUBB4B (11761932_at) / RFU CAPN14 (11732068_a_at) / Fold change /veh CAPN14 (11732068_a_at) / RFU TMCC2 (11721928_a_at) / Fold change /veh TMCC2 (11721928_a_at) / RFU IRGQ (11745062_a_at) / Fold change /veh IRGQ (11745062_a_at) / RFU FAM174B (11720279_a_at) / Fold change /veh FAM174B (11720279_a_at) / RFU TMPRSS4 (11748680_a_at) / Fold change /veh TMPRSS4 (11748680_a_at) / RFU FAM212B (11763350_a_at) / Fold change /veh FAM212B (11763350_a_at) / RFU PLEKHG5 (11743358_a_at) / Fold change /veh PLEKHG5 (11743358_a_at) / RFU ZSCAN30 (11745921_a_at) / Fold change /veh ZSCAN30 (11745921_a_at) / RFU CMKLR1 (11741424_a_at) / Fold change /veh CMKLR1 (11741424_a_at) / RFU LOC101060620 /// MAPK8IP1 (11723275_at) / Fold change /veh LOC101060620 /// MAPK8IP1 (11723275_at) / RFU SPTSSB (11747773_x_at) / Fold change /veh SPTSSB (11747773_x_at) / RFU PRSS12 (11739890_at) / Fold change /veh PRSS12 (11739890_at) / RFU BIN1 (11741810_x_at) / Fold change /veh BIN1 (11741810_x_at) / RFU WNT11 (11732464_a_at) / Fold change /veh WNT11 (11732464_a_at) / RFU C10orf10 (11716521_a_at) / Fold change /veh C10orf10 (11716521_a_at) / RFU C5orf56 (11738089_at) / Fold change /veh C5orf56 (11738089_at) / RFU CYB561 (11721691_x_at) / Fold change /veh CYB561 (11721691_x_at) / RFU ANKRD19P (11752326_a_at) / Fold change /veh ANKRD19P (11752326_a_at) / RFU OR2T12 /// OR2T33 /// OR2T8 (11738714_s_at) / Fold change /veh OR2T12 /// OR2T33 /// OR2T8 (11738714_s_at) / RFU VCAN (11748164_a_at) / Fold change /veh VCAN (11748164_a_at) / RFU JSRP1 (11732532_at) / Fold change /veh JSRP1 (11732532_at) / RFU KRTAP10-11 (11738290_x_at) / Fold change /veh KRTAP10-11 (11738290_x_at) / RFU MYO3A (11730013_a_at) / Fold change /veh MYO3A (11730013_a_at) / RFU EBF3 (11725865_a_at) / Fold change /veh EBF3 (11725865_a_at) / RFU CAMK2N1 (11719241_x_at) / Fold change /veh CAMK2N1 (11719241_x_at) / RFU C5orf56 (11738088_a_at) / Fold change /veh C5orf56 (11738088_a_at) / RFU OLFML3 (11715873_a_at) / Fold change /veh OLFML3 (11715873_a_at) / RFU LOC100653217 /// NTM (11731650_a_at) / Fold change /veh LOC100653217 /// NTM (11731650_a_at) / RFU MAPK11 (11762145_a_at) / Fold change /veh MAPK11 (11762145_a_at) / RFU FIZ1 (11724087_x_at) / Fold change /veh FIZ1 (11724087_x_at) / RFU OASL (11726364_x_at) / Fold change /veh OASL (11726364_x_at) / RFU SOX15 (11748057_x_at) / Fold change /veh SOX15 (11748057_x_at) / RFU CD79A (11719716_a_at) / Fold change /veh CD79A (11719716_a_at) / RFU HIST1H1D (11736915_at) / Fold change /veh HIST1H1D (11736915_at) / RFU CASKIN2 (11723855_a_at) / Fold change /veh CASKIN2 (11723855_a_at) / RFU LOC730098 (11760151_x_at) / Fold change /veh LOC730098 (11760151_x_at) / RFU OR4N2 (11742367_at) / Fold change /veh OR4N2 (11742367_at) / RFU PRRT2 (11749266_a_at) / Fold change /veh PRRT2 (11749266_a_at) / RFU SNX32 (11753110_a_at) / Fold change /veh SNX32 (11753110_a_at) / RFU CDHR5 (11726645_a_at) / Fold change /veh CDHR5 (11726645_a_at) / RFU RCAN1 (11760418_a_at) / Fold change /veh RCAN1 (11760418_a_at) / RFU FAM167A (11723789_a_at) / Fold change /veh FAM167A (11723789_a_at) / RFU FAM26E (11764081_at) / Fold change /veh FAM26E (11764081_at) / RFU ISYNA1 (11749810_s_at) / Fold change /veh ISYNA1 (11749810_s_at) / RFU ACY1 (11761880_at) / Fold change /veh ACY1 (11761880_at) / RFU 11764098_at / Fold change /veh 11764098_at / RFU SAMD14 (11745864_x_at) / Fold change /veh SAMD14 (11745864_x_at) / RFU NPB (11741838_a_at) / Fold change /veh NPB (11741838_a_at) / RFU TMPRSS6 (11731388_a_at) / Fold change /veh TMPRSS6 (11731388_a_at) / RFU KRTAP10-2 (11738614_at) / Fold change /veh KRTAP10-2 (11738614_at) / RFU ARHGAP8 /// PRR5-ARHGAP8 (11727945_x_at) / Fold change /veh ARHGAP8 /// PRR5-ARHGAP8 (11727945_x_at) / RFU KRTAP5-7 /// NADSYN1 (11734609_at) / Fold change /veh KRTAP5-7 /// NADSYN1 (11734609_at) / RFU RASL12 (11751679_a_at) / Fold change /veh RASL12 (11751679_a_at) / RFU CDKN2B (11736163_a_at) / Fold change /veh CDKN2B (11736163_a_at) / RFU PRF1 (11729649_at) / Fold change /veh PRF1 (11729649_at) / RFU, ZNF638 /// ZNF638-IT1 / Fold change vs veh, ZNF638 /// ZNF638-IT1 / RFU, PANK3 / Fold change vs veh, PANK3 / RFU, SH3YL1 / Fold change vs veh, SH3YL1 / RFU, ZEB2 / Fold change vs veh, ZEB2 / RFU, NRIP1 / Fold change vs veh, NRIP1 / RFU, PTTG1IP / Fold change vs veh, PTTG1IP / RFU, CAPN2 / Fold change vs veh, CAPN2 / RFU, MED14 / Fold change vs veh, MED14 / RFU, SNORA58 / Fold change vs veh, SNORA58 / RFU, C1orf63 / Fold change vs veh, C1orf63 / RFU, LRRFIP1 / Fold change vs veh, LRRFIP1 / RFU, NDUFAF7 / Fold change vs veh, NDUFAF7 / RFU, SLC12A2 / Fold change vs veh, SLC12A2 / RFU, IBTK / Fold change vs veh, IBTK / RFU, ESF1 / Fold change vs veh, ESF1 / Fold change vs veh, TMEM50B / RFU, TAOK1 / Fold change vs veh, TAOK1 / RFU, ACBD3 / Fold change vs veh, ACBD3 / RFU, TMA16 / Fold change vs veh, TMA16 / RFU, RWDD3 / Fold change vs veh, RWDD3 / RFU, BCAT1 / Fold change vs veh, BCAT1 / RFU, EDEM3 / Fold change vs veh, EDEM3 / RFU, TMEM33 / Fold change vs veh, TMEM33 / RFU, WDR75 / Fold change vs veh, WDR75 / RFU, AHCTF1 / Fold change vs veh, AHCTF1 / RFU, TFRC / Fold change vs veh, TFRC / RFU, ZDHHC17 / Fold change vs veh, ZDHHC17 / RFU, NOM1 / Fold change vs veh, NOM1 / RFU, ARL8B / Fold change vs veh, ARL8B / RFU, ZBTB11 / Fold change vs veh, ZBTB11 / RFU, TAMM41 / Fold change vs veh, TAMM41 / RFU, KIAA1704 /// LOC100996395 / Fold change vs veh, KIAA1704 /// LOC100996395 / RFU, ING1 / Fold change vs veh, ING1 / RFU, TRMT61B / Fold change vs veh, TRMT61B / RFU, FUBP3 / Fold change vs veh, FUBP3 / RFU, TP53 / Fold change vs veh, TP53 / RFU, TNKS2 / Fold change vs veh, TNKS2 / RFU, ZFP14 / Fold change vs veh, ZFP14 / RFU, ACTR2 / Fold change vs veh, ACTR2 / RFU, PPP3R1 / Fold change vs veh, PPP3R1 / RFU, PIK3R1 / Fold change vs veh, PIK3R1 / RFU, HNRNPA1 / Fold change vs veh, HNRNPA1 / RFU, RNF170 / Fold change vs veh, RNF170 / RFU, ZNF28 / Fold change vs veh, ZNF28 / RFU, RNGTT / Fold change vs veh, RNGTT / RFU, OGT / Fold change vs veh, OGT / RFU, BRD1 / Fold change vs veh, BRD1 / RFU, MARS / Fold change vs veh, MARS / RFU, ZNF655 / Fold change vs veh, ZNF655 / RFU, FAHD1 / Fold change vs veh, FAHD1 / RFU, BDP1 / Fold change vs veh, BDP1 / RFU, LRRCC1 / Fold change vs veh, LRRCC1 / RFU, ARID1A / Fold change vs veh, ARID1A / RFU, ZNF146 / Fold change vs veh, ZNF146 / RFU, ZNF330 / Fold change vs veh, ZNF330 / RFU, GPN3 / Fold change vs veh, GPN3 / RFU, C9orf123 / Fold change vs veh, C9orf123 / RFU, N4BP2L2 / Fold change vs veh, N4BP2L2 / RFU, ARFIP1 / Fold change vs veh, ARFIP1 / RFU, FAM179B / Fold change vs veh, FAM179B / RFU, BCL10 / Fold change vs veh, BCL10 / RFU, UHRF1BP1L / Fold change vs veh, UHRF1BP1L / RFU, BET1 / Fold change vs veh, BET1 / RFU, CNOT2 / Fold change vs veh, CNOT2 / RFU, ZNF268 / Fold change vs veh, ZNF268 / Fold change vs veh, ZNF507 / RFU, DGCR2 / Fold change vs veh, DGCR2 / RFU, WDSUB1 / Fold change vs veh, WDSUB1 / Fold change vs veh, HSP90B1 /// MIR3652 / RFU, ADSS / Fold change vs veh, ADSS / RFU, GK / Fold change vs veh, GK / RFU, ZNF148 / Fold change vs veh, ZNF148 / RFU, TAF9 / Fold change vs veh, TAF9 / RFU, SLC1A5 / Fold change vs veh, SLC1A5 / RFU, SLMO2 / Fold change vs veh, SLMO2 / RFU, ABCC4 / Fold change vs veh, ABCC4 / RFU, LOC101060439 /// RAP1B / Fold change vs veh, LOC101060439 /// RAP1B / RFU, RFX7 / Fold change vs veh, RFX7 / RFU, GTPBP10 / Fold change vs veh, GTPBP10 / RFU, CNEP1R1 / Fold change vs veh, CNEP1R1 / RFU, BIVM-ERCC5 /// ERCC5 / Fold change vs veh, BIVM-ERCC5 /// ERCC5 / RFU, ILF3 / Fold change vs veh, ILF3 / RFU 11762660_at / Fold change /veh 11762660_at / RFU VCAN (11757783_s_at) / Fold change /veh VCAN (11757783_s_at) / RFU DDX43 (11728927_at) / Fold change /veh DDX43 (11728927_at) / RFU KRT8 (11758188_x_at) / Fold change /veh KRT8 (11758188_x_at) / RFU NKD1 (11759106_at) / Fold change /veh NKD1 (11759106_at) / RFU SRD5A1 (11742802_a_at) / Fold change /veh SRD5A1 (11742802_a_at) / RFU TPSAB1 /// TPSB2 (11721975_s_at) / Fold change /veh TPSAB1 /// TPSB2 (11721975_s_at) / RFU GSTM3 (11746129_a_at) / Fold change /veh GSTM3 (11746129_a_at) / RFU IL23R (11737362_x_at) / Fold change /veh IL23R (11737362_x_at) / RFU TMEM51 (11727254_a_at) / Fold change /veh TMEM51 (11727254_a_at) / RFU PIWIL2 (11732686_x_at) / Fold change /veh PIWIL2 (11732686_x_at) / RFU ORM1 (11744905_x_at) / Fold change /veh ORM1 (11744905_x_at) / RFU CCDC152 (11743942_at) / Fold change /veh CCDC152 (11743942_at) / RFU ECM1 (11717891_a_at) / Fold change /veh ECM1 (11717891_a_at) / RFU IL23R (11748794_a_at) / Fold change /veh IL23R (11748794_a_at) / RFU TNFAIP8L3 (11732012_x_at) / Fold change /veh TNFAIP8L3 (11732012_x_at) / RFU MBOAT4 (11741988_at) / Fold change /veh MBOAT4 (11741988_at) / RFU 11764193_at / Fold change /veh 11764193_at / RFU TMEM53 (11763286_at) / Fold change /veh TMEM53 (11763286_at) / RFU MAGEB2 (11727129_at) / Fold change /veh MAGEB2 (11727129_at) / RFU TMEM200A (11744735_a_at) / Fold change /veh TMEM200A (11744735_a_at) / RFU CCDC152 (11751479_a_at) / Fold change /veh CCDC152 (11751479_a_at) / RFU FAM211A (11726209_a_at) / Fold change /veh FAM211A (11726209_a_at) / RFU RGS16 (11746705_a_at) / Fold change /veh RGS16 (11746705_a_at) / RFU VCAN (11755009_s_at) / Fold change /veh VCAN (11755009_s_at) / RFU RHOB (11743442_s_at) / Fold change /veh RHOB (11743442_s_at) / RFU RGS16 (11720943_a_at) / Fold change /veh RGS16 (11720943_a_at) / RFU RGS16 (11720944_at) / Fold change /veh RGS16 (11720944_at) / RFU, VPS4B / Fold change vs veh, VPS4B / RFU, CREB1 / Fold change vs veh, CREB1 / RFU, DNAJC13 / Fold change vs veh, DNAJC13 / RFU, GNAQ / Fold change vs veh, GNAQ / RFU, CDK5R1 / Fold change vs veh, CDK5R1 / RFU, ZRANB3 / Fold change vs veh, ZRANB3 / RFU, CUL4A / Fold change vs veh, CUL4A / RFU, CCNY / Fold change vs veh, CCNY / RFU, UFL1 / Fold change vs veh, UFL1 / RFU, COG3 / Fold change vs veh, COG3 / RFU, DIAPH2 / Fold change vs veh, DIAPH2 / RFU, SKA2 / Fold change vs veh, SKA2 / RFU, AFF3 / Fold change vs veh, AFF3 / RFU, LMF1 / Fold change vs veh, LMF1 / RFU, IPO11 / Fold change vs veh, IPO11 / RFU, DFFB / Fold change vs veh, DFFB / RFU, FOXP1 / Fold change vs veh, FOXP1 / RFU, CARD8 / Fold change vs veh, CARD8 / RFU, STRN3 / Fold change vs veh, STRN3 / RFU, ADK / Fold change vs veh, ADK / RFU, RASSF2 / Fold change vs veh, RASSF2 / RFU, WIPF1 / Fold change vs veh, WIPF1 / RFU, LARP1B / Fold change vs veh, LARP1B / RFU, RASA1 / Fold change vs veh, RASA1 / RFU, RB1 / Fold change vs veh, RB1 / RFU, PPFIA1 / Fold change vs veh, PPFIA1 / RFU, MAT2A / Fold change vs veh, MAT2A / RFU, CCT5 / Fold change vs veh, CCT5 / RFU, WDR92 / Fold change vs veh, WDR92 / RFU, CUX1 / Fold change vs veh, CUX1 / RFU, TTC7A / Fold change vs veh, TTC7A / RFU, TMEM135 / Fold change vs veh, TMEM135 / RFU, DEPTOR / Fold change vs veh, DEPTOR / RFU, CPM / Fold change vs veh, CPM / RFU, DNAJB6 / Fold change vs veh, DNAJB6 / RFU, CACNA2D3 / Fold change vs veh, CACNA2D3 / RFU, DTX4 / Fold change vs veh, DTX4 / RFU, TFCP2 / Fold change vs veh, TFCP2 / RFU, GMCL1 /// GMCL1P1 / Fold change vs veh, GMCL1 /// GMCL1P1 / RFU, AEBP2 / Fold change vs veh, AEBP2 / RFU, SNHG1 /// SNORD22 /// SNORD25 /// SNORD26 /// SNORD27 /// SNORD28 /// SNORD29 /// SNORD31 / Fold change vs veh, SNHG1 /// SNORD22 /// SNORD25 /// SNORD26 /// SNORD27 /// SNORD28 /// SNORD29 /// SNORD31 / Fold change (Aza/veh), C12orf56 (ProbeSet 11735607_a_at) / Fold change (ACY-1035/veh), C12orf56 (ProbeSet 11735607_a_at) / Fold change (Aza/veh), FGFR1OP (ProbeSet 11751329_s_at) / Fold change (ACY-1035/veh), FGFR1OP (ProbeSet 11751329_s_at) / Fold change (Aza/veh), VPS36 (ProbeSet 11739960_a_at) / Fold change (ACY-1035/veh), VPS36 (ProbeSet 11739960_a_at) / RFU SYPL1 (11715823_x_at) / Fold change /veh SYPL1 (11715823_x_at) / RFU IGFBP7 (11715501_s_at) / Fold change /veh IGFBP7 (11715501_s_at) / RFU REEP3 (11722064_at) / Fold change /veh REEP3 (11722064_at) / RFU IGLL1 (11728026_x_at) / Fold change /veh IGLL1 (11728026_x_at): dose or concentration left out as unconfirmed
Settings: ProbeSet 11725100_s_at; LIST B

Nc1ncn([C@@H]2O[C@H](CO)[C@@H](O)[C@H]2O)c(=O)n1 [azacitidine]
RFU, ESF1: 107.31 RFU
